Source: patent US20220241236A1, “DIETARY BUTYRATE AND ITS USES” (SOCIETE DES PRODUITS NESTLE S.A., priority 2019, published 2022)
“Also recorded” adds a separate entry of the source.

What was measured:
[1] = tested on: rabbit gastric lipase (RGL) followed by porcine pancreatic lipase (PPL); assay: Sequential in vitro digestion SGF (RGL) followed by SIF (PPL), pH-stat; assay type: in vitro ADME
[2] = target: T1, porcine pancreatic lipase (from pancreatin) (Sus scrofa, UniProt P00591); assay: In vitro lipolysis in simulated intestinal fluid (SIF model), pH-stat; assay type: in vitro ADME; details: SIF alone; emulsion with 200 mg fat; pH 6.8, 37° C.
T1 construct: pancreatin (Porcine, USP×8, P7585); purchased Sigma-Aldrich P7585; host or cells: porcine pancreas extract (pancreatin)
T1 sequence (P00591 1-450): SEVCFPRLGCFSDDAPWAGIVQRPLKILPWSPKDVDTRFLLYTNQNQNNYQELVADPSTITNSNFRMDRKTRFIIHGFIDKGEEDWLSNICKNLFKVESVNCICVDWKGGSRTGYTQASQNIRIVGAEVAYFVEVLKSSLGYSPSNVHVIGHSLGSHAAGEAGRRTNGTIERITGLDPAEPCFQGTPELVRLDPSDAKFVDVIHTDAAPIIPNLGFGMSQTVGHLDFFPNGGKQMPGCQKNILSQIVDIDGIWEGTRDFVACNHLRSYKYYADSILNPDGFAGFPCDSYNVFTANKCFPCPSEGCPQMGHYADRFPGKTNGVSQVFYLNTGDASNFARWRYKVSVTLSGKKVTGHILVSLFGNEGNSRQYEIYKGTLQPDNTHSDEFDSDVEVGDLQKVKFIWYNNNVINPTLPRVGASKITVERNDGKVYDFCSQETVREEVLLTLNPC
T1 sequence (P02703 23-112 partner): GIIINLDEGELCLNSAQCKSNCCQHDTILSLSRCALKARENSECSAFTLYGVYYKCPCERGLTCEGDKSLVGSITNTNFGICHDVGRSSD

- initial lipolysis rate in SIF ([1]; SGF-SIF sequential digestion (after pre-exposure to RGL)): 44.1 ± 8.8 µmol/min
- lipolysis by gastric lipase ([1]; indicated by decreased total fatty acid release in SIF after RGL pre-exposure): ~60%
- initial rate of lipolysis [2]: 223 ± 59 µmol/min
Compound: CCCC(=O)OCC(COC(=O)CCC)OC(=O)CCC [tributyrin]
- extent of gastric lipolysis / hydrolysis in the stomach ([1]; gastric compartment of the model): considerable digestion; also recorded: extensive hydrolysis in the stomach
